From ChEMBL document CHEMBL3797127, “Design, synthesis and evaluation of pyrrolo[2,3-d]pyrimidine-phenylamide hybrids as potent Janus kinase 2 inhibitors” (Bioorg Med Chem Lett, 2016) come the findings set out here.

Data set [1] has as its target T1, Tyrosine-protein kinase JAK3 (Homo sapiens, UniProt P52333).
T1 sequence (P52333 whole entry): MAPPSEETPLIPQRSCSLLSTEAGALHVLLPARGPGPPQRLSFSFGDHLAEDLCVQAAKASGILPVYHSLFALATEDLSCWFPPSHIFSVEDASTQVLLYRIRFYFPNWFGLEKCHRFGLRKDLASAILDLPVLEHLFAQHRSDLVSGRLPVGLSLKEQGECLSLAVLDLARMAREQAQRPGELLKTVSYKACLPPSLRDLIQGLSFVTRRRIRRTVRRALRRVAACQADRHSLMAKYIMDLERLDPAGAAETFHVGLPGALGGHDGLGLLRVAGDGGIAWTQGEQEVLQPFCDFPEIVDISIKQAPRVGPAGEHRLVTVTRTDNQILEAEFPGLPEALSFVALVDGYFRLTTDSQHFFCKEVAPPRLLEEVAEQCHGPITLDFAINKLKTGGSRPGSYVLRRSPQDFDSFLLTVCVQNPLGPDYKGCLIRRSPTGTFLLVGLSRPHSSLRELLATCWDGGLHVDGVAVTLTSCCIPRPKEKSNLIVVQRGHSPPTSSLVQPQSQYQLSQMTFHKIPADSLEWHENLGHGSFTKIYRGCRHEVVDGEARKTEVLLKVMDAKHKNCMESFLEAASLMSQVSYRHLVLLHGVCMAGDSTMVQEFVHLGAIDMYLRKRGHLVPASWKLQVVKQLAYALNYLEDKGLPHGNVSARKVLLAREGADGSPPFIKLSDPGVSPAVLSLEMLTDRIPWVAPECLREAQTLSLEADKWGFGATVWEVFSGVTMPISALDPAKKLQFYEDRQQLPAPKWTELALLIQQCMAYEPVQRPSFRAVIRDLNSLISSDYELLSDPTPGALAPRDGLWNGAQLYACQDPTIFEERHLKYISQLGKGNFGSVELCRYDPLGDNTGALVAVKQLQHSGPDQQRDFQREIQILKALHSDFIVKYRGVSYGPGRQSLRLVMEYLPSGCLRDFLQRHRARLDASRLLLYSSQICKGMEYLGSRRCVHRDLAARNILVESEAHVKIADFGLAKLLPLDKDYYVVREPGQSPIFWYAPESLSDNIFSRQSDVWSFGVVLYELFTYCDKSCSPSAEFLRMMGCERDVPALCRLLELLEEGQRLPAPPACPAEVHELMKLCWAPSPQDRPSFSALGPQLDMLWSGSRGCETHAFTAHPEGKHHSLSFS
Description: Inhibition of recombinant human GST-tagged JAK3 expressed in baculovirus expression system using Z'-LYTE Try6 peptide as substrate incubated for 1 hr by Z'-LYTE assay

A short description of data set [2]: in vivo. The settings on record: Sprague-Dawley, rat, iv, 4 mg/kg.
Data set [3] is described as follows: in vivo. The following applies: Sprague-Dawley, rat, iv, 4 mg/kg. The source holds these as a separate data set.
Data set [4] in a line: in vivo. The following applies: Sprague-Dawley, rat, iv, 4 mg/kg. This is another data set of the same source.
Data set [5] is described as follows: in vivo. The settings on record: Sprague-Dawley, rat, iv, 4 mg/kg. This is another data set of the same source.
Data set [6] is described as follows: in vivo. The following applies: Sprague-Dawley, rat, iv, 4 mg/kg. The source holds these as a separate data set.
Description: Half life in Sprague-Dawley rat at 4 mg/kg, iv administered as bolus dose
The nature of data set [7]: in vivo. The following applies: Sprague-Dawley, rat, po, 10 mg/kg.
A short description of data set [8]: in vivo. The following applies: Sprague-Dawley, rat, po, 10 mg/kg. This is another data set of the same source.
Data set [9] can be described thus: in vivo. The following applies: Sprague-Dawley, rat, po, 10 mg/kg. This is another data set of the same source.
A short description of data set [10]: in vivo. The following applies: Sprague-Dawley, rat, po, 10 mg/kg. The source holds these as a separate data set.
Description: Half life in Sprague-Dawley rat at 10 mg/kg, po administered through gavage
Data set [11] can be described thus: in vivo. The settings on record: Sprague-Dawley, rat, po, 10 mg/kg. The source holds these as a separate data set.

Regarding `Cn1c(C(=O)NCCCN2CCOCC2)cc2c(-c3ccc(NC(=O)C(C)(C)C)cc3)ncnc21`, the concentration for half-maximal inhibition (IC50) (as a rule, the concentration that inhibits the measured activity by half) in data set [1] was 584 nM. Besides, the AUC(0-t) (in general, the area under the concentration-time curve up to a stated or last time point) at 24 h is 19700 ng·h/mL in “in vivo [2]” and 36300 ng·h/mL in “in vivo [7]”. Moreover, the clearance (commonly a measure of how efficiently the substance is removed, as volume per time) in “in vivo [3]” amounted to 3.3 mL/min/kg. Further, the Vd (commonly the apparent volume that relates the amount in the body to the concentration in plasma or blood) in the data set “in vivo [4]” is 0.612 L/kg. Also, the Cmax (usually the peak of the concentration-time curve) came to 9730 ng/mL in “in vivo [5]” and 6140 ng/mL in the data set “in vivo [8]”. Moreover, the half-life (usually the time in which the quantity being followed falls by half) was 2.09 h in the data set “in vivo [6]” and 2.32 h in “in vivo [10]”. Also, the Tmax (commonly the time at which the peak concentration occurs) in the data set “in vivo [9]” was 4 h. The bioavailability (usually the share of a dose that reaches the circulation, judged against a reference dose that is usually intravenous) in the data set “in vivo [11]” was 73.6%.

For the compound `Cn1c(C(=O)NCCN2CCCC2)cc2c(-c3ccc(NC(=O)C(C)(C)C)cc3)ncnc21`, the concentration for half-maximal inhibition (IC50) in data set [1] worked out at 953 nM. That is a sub-micromolar value.

Regarding `Cn1c(C(=O)NCCN2CCCC2)cc2c(-c3ccc(NC(=O)[C@@H]4CCCN4C(=O)OC(C)(C)C)cc3)ncnc21`, the 50% inhibitory concentration (IC50) in data set [1] came to 716 nM.

Regarding `Cn1c(C(=O)NCCCN2CCOCC2)cc2c(-c3ccc(NC(=O)[C@@H]4CCCN4C(=O)OC(C)(C)C)cc3)ncnc21`, in data set [1], half-maximal inhibition (IC50) required 507 nM.
